Measured values taken from ChEMBL document CHEMBL4152232, “Design, synthesis and pharmacological evaluation of ALK and Hsp90 dual inhibitors bearing resorcinol and 2,4-diaminopyrimidine motifs” (Eur J Med Chem, 2018).
Calls of active or inactive are those of the source. The calls are words filed in the database; no cut-off is given here.

Assays:
NCI-H3122 = assay: Antiproliferative activity against human NCI-H3122 cells after 72 hrs by SRB assay; type: functional, cell-based; details: NCI-H3122, 72 h
A549 = assay: Antiproliferative activity against human A549 cells after 72 hrs by SRB assay; type: functional, cell-based; details: A549, 72 h
NCI-H460 = assay: Antiproliferative activity against human NCI-H460 cells after 72 hrs by SRB assay; type: functional, cell-based; details: NCI-H460, 72 h
HCT-116 = assay: Antiproliferative activity against human HCT116 cells after 72 hrs by SRB assay; type: functional, cell-based; details: HCT-116, 72 h
BT-474 = assay: Antiproliferative activity against human BT474 cells after 72 hrs by SRB assay; type: functional, cell-based; details: BT-474, 72 h
MDA-MB-231 = assay: Antiproliferative activity against human MDA-MB-231 cells after 72 hrs by SRB assay; type: functional, cell-based; details: MDA-MB-231, 72 h
DU-145 = assay: Antiproliferative activity against human DU145 cells after 72 hrs by SRB assay; type: functional, cell-based; details: DU-145, 72 h
NCI-N87 = assay: Antiproliferative activity against human NCI-N87 cells after 72 hrs by SRB assay; type: functional, cell-based; details: NCI-N87, 72 h
U-87 MG = assay: Antiproliferative activity against human U87MG cells after 72 hrs by SRB assay; type: functional, cell-based, U-87MG ATCC
EBC-1 = assay: Antiproliferative activity against human EBC1 cells after 72 hrs by SRB assay; type: functional, cell-based; details: EBC-1, 72 h
[1] = Antiproliferative activity against human EBC1/SR cells after 72 hrs by SRB assay; type: functional, cell-based
[2] = biological target: ALK tyrosine kinase receptor (Homo sapiens, UniProt Q9UM73); assay: Inhibition of recombinant ALK (unknown origin) using poly (Glu,Tyr)4:1 as substrate after 60 mins by ELISA
Sequence of ALK tyrosine kinase receptor (Homo sapiens, UniProt Q9UM73) (Q9UM73 whole entry): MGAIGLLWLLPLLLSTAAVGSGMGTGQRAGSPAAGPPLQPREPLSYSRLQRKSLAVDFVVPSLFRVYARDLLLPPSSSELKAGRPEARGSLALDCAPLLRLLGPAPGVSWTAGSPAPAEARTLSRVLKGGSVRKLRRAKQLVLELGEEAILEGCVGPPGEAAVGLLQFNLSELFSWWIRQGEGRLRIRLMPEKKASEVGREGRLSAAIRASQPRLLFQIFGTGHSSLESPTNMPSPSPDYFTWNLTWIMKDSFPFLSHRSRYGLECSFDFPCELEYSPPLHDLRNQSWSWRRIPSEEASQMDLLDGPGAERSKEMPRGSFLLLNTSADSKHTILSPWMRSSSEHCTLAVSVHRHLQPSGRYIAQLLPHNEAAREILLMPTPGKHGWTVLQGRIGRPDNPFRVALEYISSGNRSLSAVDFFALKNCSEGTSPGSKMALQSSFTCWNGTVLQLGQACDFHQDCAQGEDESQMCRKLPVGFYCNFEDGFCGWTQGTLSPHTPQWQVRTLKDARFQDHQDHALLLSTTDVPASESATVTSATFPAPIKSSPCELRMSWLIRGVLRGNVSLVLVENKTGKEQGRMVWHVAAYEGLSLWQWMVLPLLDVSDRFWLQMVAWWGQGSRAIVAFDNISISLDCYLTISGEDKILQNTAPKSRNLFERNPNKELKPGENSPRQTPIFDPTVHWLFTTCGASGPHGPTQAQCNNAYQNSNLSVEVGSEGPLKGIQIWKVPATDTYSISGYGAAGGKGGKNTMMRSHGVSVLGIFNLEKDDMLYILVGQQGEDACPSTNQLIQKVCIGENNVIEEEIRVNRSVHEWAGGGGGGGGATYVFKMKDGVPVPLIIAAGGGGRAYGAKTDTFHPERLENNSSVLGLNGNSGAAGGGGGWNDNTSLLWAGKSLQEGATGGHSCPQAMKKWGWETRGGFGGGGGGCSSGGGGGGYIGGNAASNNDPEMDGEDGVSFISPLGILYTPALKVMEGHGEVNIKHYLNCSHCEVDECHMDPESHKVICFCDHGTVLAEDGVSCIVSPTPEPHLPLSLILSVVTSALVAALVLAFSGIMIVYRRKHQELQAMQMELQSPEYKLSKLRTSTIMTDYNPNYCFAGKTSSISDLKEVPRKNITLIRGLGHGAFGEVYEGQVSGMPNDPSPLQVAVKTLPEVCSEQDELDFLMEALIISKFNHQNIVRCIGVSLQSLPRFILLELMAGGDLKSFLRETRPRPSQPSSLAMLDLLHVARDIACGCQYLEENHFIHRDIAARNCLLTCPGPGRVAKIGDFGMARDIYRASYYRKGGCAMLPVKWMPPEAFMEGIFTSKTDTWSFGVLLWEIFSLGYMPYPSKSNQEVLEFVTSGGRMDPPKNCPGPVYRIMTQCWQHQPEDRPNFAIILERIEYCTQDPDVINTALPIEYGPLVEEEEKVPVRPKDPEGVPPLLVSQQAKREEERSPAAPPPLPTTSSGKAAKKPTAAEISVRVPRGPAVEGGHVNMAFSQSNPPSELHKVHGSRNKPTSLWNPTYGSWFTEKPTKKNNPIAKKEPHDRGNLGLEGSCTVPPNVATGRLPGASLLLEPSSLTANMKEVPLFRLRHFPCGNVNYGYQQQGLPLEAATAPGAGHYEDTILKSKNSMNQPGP

[3] = biological target: Heat shock protein HSP 90-alpha (Homo sapiens, UniProt P07900); assay: Inhibition of FITC-labeled geldanamycin binding to recombinant HSP90alpha (unknown origin) after 1 hr by fluorescence polarization assay
[4] = biological target: ALK tyrosine kinase receptor (Homo sapiens, UniProt Q9UM73, L1196M); assay: Inhibition of ALK L1196M mutant (unknown origin) using poly (Glu,Tyr)4:1 as substrate after 60 mins by ELISA
Sequence of ALK tyrosine kinase receptor (Homo sapiens, UniProt Q9UM73, L1196M) (Q9UM73 19-1620 L1196M limits assumed): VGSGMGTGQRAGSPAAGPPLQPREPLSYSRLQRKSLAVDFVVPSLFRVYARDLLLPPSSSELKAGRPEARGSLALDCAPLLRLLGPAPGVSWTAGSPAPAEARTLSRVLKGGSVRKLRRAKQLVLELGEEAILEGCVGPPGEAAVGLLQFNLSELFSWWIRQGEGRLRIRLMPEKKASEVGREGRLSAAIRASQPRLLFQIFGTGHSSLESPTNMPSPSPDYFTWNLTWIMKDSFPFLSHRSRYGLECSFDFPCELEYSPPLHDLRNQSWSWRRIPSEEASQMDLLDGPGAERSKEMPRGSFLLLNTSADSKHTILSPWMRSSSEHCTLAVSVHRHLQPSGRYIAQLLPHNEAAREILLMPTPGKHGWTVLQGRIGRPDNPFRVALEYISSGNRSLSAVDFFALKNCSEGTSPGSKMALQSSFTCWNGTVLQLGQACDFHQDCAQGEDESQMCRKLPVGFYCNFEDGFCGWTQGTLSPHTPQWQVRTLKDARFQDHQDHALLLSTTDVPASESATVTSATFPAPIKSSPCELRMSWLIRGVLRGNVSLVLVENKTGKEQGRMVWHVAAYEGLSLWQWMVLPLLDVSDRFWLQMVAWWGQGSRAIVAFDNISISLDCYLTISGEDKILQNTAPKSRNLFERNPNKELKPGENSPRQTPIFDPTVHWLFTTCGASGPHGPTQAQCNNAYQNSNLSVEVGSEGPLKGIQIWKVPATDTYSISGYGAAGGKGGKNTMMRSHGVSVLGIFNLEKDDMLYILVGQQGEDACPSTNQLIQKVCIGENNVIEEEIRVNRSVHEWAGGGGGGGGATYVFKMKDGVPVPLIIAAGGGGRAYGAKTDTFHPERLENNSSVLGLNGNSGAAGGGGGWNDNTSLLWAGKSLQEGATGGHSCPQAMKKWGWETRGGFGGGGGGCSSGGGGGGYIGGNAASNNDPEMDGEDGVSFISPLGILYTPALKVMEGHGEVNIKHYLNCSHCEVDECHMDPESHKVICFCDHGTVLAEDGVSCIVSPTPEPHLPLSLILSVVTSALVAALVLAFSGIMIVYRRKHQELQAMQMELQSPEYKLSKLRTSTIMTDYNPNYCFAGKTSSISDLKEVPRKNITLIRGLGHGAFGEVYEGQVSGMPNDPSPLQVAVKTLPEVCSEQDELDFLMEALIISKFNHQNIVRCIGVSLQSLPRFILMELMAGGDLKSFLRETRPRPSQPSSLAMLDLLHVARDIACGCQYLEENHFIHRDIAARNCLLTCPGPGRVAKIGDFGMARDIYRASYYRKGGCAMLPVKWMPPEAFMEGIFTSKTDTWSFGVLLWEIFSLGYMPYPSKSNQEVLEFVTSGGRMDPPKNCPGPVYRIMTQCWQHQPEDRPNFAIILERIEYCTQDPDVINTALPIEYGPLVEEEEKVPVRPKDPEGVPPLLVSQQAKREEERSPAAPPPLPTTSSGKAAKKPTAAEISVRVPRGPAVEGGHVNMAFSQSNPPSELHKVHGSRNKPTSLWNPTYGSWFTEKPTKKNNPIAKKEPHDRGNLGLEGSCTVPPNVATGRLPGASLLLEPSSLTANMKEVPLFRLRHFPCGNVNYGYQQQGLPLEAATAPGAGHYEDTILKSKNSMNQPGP

[5] = biological target: ALK tyrosine kinase receptor (Homo sapiens, UniProt Q9UM73, G1202R); assay: Inhibition of ALK G1202R mutant (unknown origin) using poly (Glu,Tyr)4:1 as substrate after 60 mins by ELISA
Sequence of ALK tyrosine kinase receptor (Homo sapiens, UniProt Q9UM73, G1202R) (Q9UM73 19-1620 G1202R limits assumed): as the sequence (Q9UM73 19-1620 L1196M limits assumed) above, with M1178L, G1184R counted along it

[6] = biological target: T1, Heat shock protein HSP90 (Homo sapiens) (UniProt P07900+P08238); assay: Inhibition of Hsp90 in human NCI-H3122 cells assessed as decrease in ALK phosphorylation at Tyr1278 residues up to 1000 nM after 24 hrs by Western blot analysis; type: cell-based
[7] = biological target: T1, Heat shock protein HSP90 (Homo sapiens); assay: Inhibition of Hsp90 in human NCI-H3122 cells assessed as decrease in AKT phosphorylation at Ser473 residues up to 1000 nM after 24 hrs by Western blot analysis; type: cell-based
[8] = biological target: T1, Heat shock protein HSP90 (Homo sapiens); assay: Inhibition of Hsp90 in human NCI-H3122 cells assessed as decrease in ERK1/2 phosphorylation up to 1000 nM after 24 hrs by Western blot analysis; type: cell-based
[9] = biological target: T1, Heat shock protein HSP90 (Homo sapiens); assay: Inhibition of Hsp90 in human NCI-H3122 cells assessed as upregulation of Hsp70 after 24 hrs by Western blot analysis; type: cell-based

CCNC(=O)c1noc(-c2cc(C(C)C)c(O)cc2O)c1-c1ccc(CN2CCOCC2)cc1 [LUMINESPIB]
IC50 (NCI-H3122): 12.4 nM | IC50 (A549): 60 nM | IC50 (NCI-H460): 23 nM | IC50 (HCT-116): 16 nM | IC50 (BT-474): 14 nM | IC50 (MDA-MB-231): 21 nM | IC50 (DU-145): 21 nM | IC50 (NCI-N87): 83 nM | IC50 (U-87 MG): 31 nM | IC50 (EBC-1): 13 nM | IC50 [1]: 30 nM

CCNC(=O)c1noc(-c2cc(C(C)C)c(O)cc2O)c1-c1ccc(CNCC(=O)Nc2cccc(Nc3ncc(Cl)c(Nc4ccccc4S(=O)(=O)C(C)C)n3)c2)cc1
IC50 [2]: 10.3 nM | IC50 [3]: 370 nM | IC50 (NCI-H3122): 141 nM

CCNC(=O)c1noc(-c2cc(C(C)C)c(O)cc2O)c1-c1ccc(CN2CCN(CC(=O)NCC(=O)Nc3ccc(OC)c(Nc4ncc(Cl)c(Nc5ccccc5S(=O)(=O)C(C)C)n4)c3)CC2)cc1
IC50 [2]: 6.9 nM | IC50 [3]: 84.8 nM | IC50 (NCI-H3122): 46 nM | IC50 [4]: 8.7 nM | IC50 [5]: 36.4 nM | IC50 (A549): 613 nM | IC50 (NCI-H460): 624 nM | IC50 (HCT-116): 193 nM | IC50 (BT-474): 60 nM | IC50 (MDA-MB-231): 135 nM | IC50 (DU-145): 367 nM | IC50 (NCI-N87): 230 nM | IC50 (U-87 MG): 205 nM | IC50 (EBC-1): 163 nM | IC50 [1]: 495 nM

COc1ccc(NC(=O)CN2CCN(Cc3ccc4c(c3)CN(C(=O)c3cc(C(C)C)c(O)cc3O)C4)CC2)cc1Nc1ncc(Cl)c(Nc2ccccc2S(=O)(=O)C(C)C)n1
IC50 [2]: 9.8 nM | IC50 [3]: 40 nM | IC50 (NCI-H3122): 13 nM | IC50 [4]: 6 nM | inhibition [6]: Active | inhibition [7]: Active | inhibition [8]: Active | inhibition [9]: Dose-dependent effect

CCNC(=O)c1noc(-c2cc(C(C)C)c(O)cc2O)c1-c1ccc(C(=O)NCC(=O)Nc2ccc(OC)c(Nc3ncc(Cl)c(Nc4ccccc4S(=O)(=O)C(C)C)n3)c2)cc1
IC50 [2]: 83.2 nM | IC50 [3]: > 1000 nM | IC50 (NCI-H3122): 159 nM

CCNC(=O)c1noc(-c2cc(C(C)C)c(O)cc2O)c1-c1ccc(C(=O)N2CCN(CC(=O)Nc3cccc(Nc4ncc(Cl)c(Nc5ccccc5S(=O)(=O)C(C)C)n4)c3)CC2)cc1
IC50 [2]: 22.9 nM | IC50 [3]: 123 nM | IC50 (NCI-H3122): 113 nM

CCNC(=O)c1noc(-c2cc(C(C)C)c(O)cc2O)c1-c1ccc(CN2CCN(CC(=O)Nc3ccc(OC)c(Nc4ncc(Cl)c(Nc5ccccc5S(=O)(=O)C(C)C)n4)c3)CC2)cc1
IC50 [2]: 17.3 nM | IC50 [3]: 100 nM | IC50 (NCI-H3122): 11 nM | IC50 [4]: 6.2 nM | IC50 [5]: 85.5 nM | IC50 (A549): 287 nM | IC50 (NCI-H460): 235 nM | IC50 (HCT-116): 82 nM | IC50 (BT-474): 52 nM | IC50 (MDA-MB-231): 104 nM | IC50 (DU-145): 228 nM | IC50 (NCI-N87): 503 nM | IC50 (U-87 MG): 237 nM | IC50 (EBC-1): 47 nM | IC50 [1]: 215 nM | inhibition [6]: Active | inhibition [7]: Active | inhibition [8]: Active | inhibition [9]: Dose-dependent effect

CC(C)c1cc(-c2onc(C(=O)NCC(=O)Nc3cccc(Nc4ncc(Cl)c(Nc5ccccc5S(=O)(=O)C(C)C)n4)c3)c2-c2ccc(CN3CCOCC3)cc2)c(O)cc1O
IC50 [2]: 53.7 nM | IC50 [3]: > 1000 nM | IC50 (NCI-H3122): 444 nM

CC(C)c1cc(C(=O)N2Cc3ccc(CN4CCN(C)CC4)cc3C2)c(O)cc1O [ONALESPIB]
IC50 [3]: 13.6 nM | IC50 (NCI-H3122): 52 nM

COc1ccc(NC(=O)CNC(=O)CN2CCN(Cc3ccc4c(c3)CN(C(=O)c3cc(C(C)C)c(O)cc3O)C4)CC2)cc1Nc1ncc(Cl)c(Nc2ccccc2S(=O)(=O)C(C)C)n1
IC50 [2]: 4.1 nM | IC50 [3]: 47 nM | IC50 (NCI-H3122): 175 nM

CCNC(=O)c1noc(-c2cc(C(C)C)c(O)cc2O)c1-c1ccc(CNCC(=O)Nc2ccc(OC)c(Nc3ncc(Cl)c(Nc4ccccc4S(=O)(=O)C(C)C)n3)c2)cc1
IC50 [2]: 24.2 nM | IC50 [3]: 260 nM | IC50 (NCI-H3122): 57 nM

COc1ccc(Nc2ncc(Cl)c(Nc3ccccc3S(=O)(=O)C(C)C)n2)cc1NC(=O)CNC(=O)c1noc(-c2cc(C(C)C)c(O)cc2O)c1-c1ccc(CN2CCOCC2)cc1
IC50 [2]: 958 nM | IC50 [3]: > 1000 nM | IC50 (NCI-H3122): 319 nM

COc1ccc(NC(=O)CNC(=O)c2noc(-c3cc(C(C)C)c(O)cc3O)c2-c2ccc(CN3CCOCC3)cc2)cc1Nc1ncc(Cl)c(Nc2ccccc2S(=O)(=O)C(C)C)n1
IC50 [2]: 108 nM | IC50 [3]: > 1000 nM | IC50 (NCI-H3122): 587 nM
